In patent publication US20200102264A1, “MARMELIN ANALOGS AND METHODS OF USE IN CANCER TREATMENT” (THE UNIVERSITY OF KANSAS, priority 2014, published 2020):

Legend:
Type in all cases: cell-based
[1] = system: HCT116 colon cancer cells; test: hexoseaminidase cell proliferation assay, HCT116
Source text: (§1) Using hexoseaminidase assay, we determined the effect of the compounds on cell proliferation. […]
(§2) Using hexoseaminidase assay, we determined the effect of the compounds on cell proliferation. […] […] […] Overall, the analogs can be used as chemotherapeutic agents against colon and pancreatic cancer.

[2] = system: MiaPaCa-2 pancreatic cancer cells; test: hexoseaminidase cell proliferation assay, MiaPaCa-2
Procedure: (§3) Using hexoseaminidase assay, we determined the effect of the compounds on cell proliferation. […] The IC50 value at 48 hours is below 10 μM in all the cancer cell lines.
(§4) Using hexoseaminidase assay, we determined the effect of the compounds on cell proliferation. […] The MRL16 IC50 value at 48 hours is below 0.3 μM in Colon cancer cell lines. […] Overall, the analogs can be used as chemotherapeutic agents against colon and pancreatic cancer.

SW480 colon cancer cells = test: hexoseaminidase cell proliferation assay, SW480
Source text: as §1, §2

[3] = system: PanC-1 pancreatic cancer cells; test: hexoseaminidase cell proliferation assay, PanC-1
Procedure: as §3, §4

[4] = system: colon, pancreatic and bladder cancer cells; test: hexoseaminidase cell proliferation assay, summaries over cell lines; details: dose and time dependent
Procedure: Water solubility studies were performed with the CD/analog complexes. […] The observed IC50 value of THBCD at 48 h is below 10 μM in all the colon, pancreatic and bladder cancer cells.
as §3, §4

[5] = Homo sapiens, HCT-116, HCT116, 24 h
[6] = Homo sapiens, HCT-116, HCT116, 48 h
[7] = Homo sapiens, HCT-116, HCT116, 72 h
[8] = Homo sapiens, MIA PaCa-2, MiaPaCa-2, 24 h
[9] = Homo sapiens, MIA PaCa-2, MiaPaCa-2, 48 h
[10] = Homo sapiens, MIA PaCa-2, MiaPaCa-2, 72 h

Structure (SMILES)	IC50 [1, 5] [µM]	IC50 [1, 6] [µM]	IC50 [1, 7] [µM]	IC50 [2, 8] [µM]	IC50 [2, 9] [µM]	IC50 [2, 10] [µM]	IC50 (SW480 colon cancer cells; Homo sapiens, SW480, 24 h) [µM]	IC50 (SW480 colon cancer cells; Homo sapiens, SW480, 48 h) [µM]	IC50 ([1]; HCT116, 24 h) [µM]	IC50 ([1]; HCT116, 48 h) [µM]	IC50 ([1]; HCT116, 72 h) [µM]	IC50 ([2]; MiaPaCa-2, 24 h) [µM]	IC50 ([2]; MiaPaCa-2, 48 h) [µM]	IC50 ([2]; MiaPaCa-2, 72 h) [µM]	IC50 (SW480 colon cancer cells; SW480, 24 h) [µM]	IC50 (SW480 colon cancer cells; SW480, 48 h) [µM]	IC50 (SW480 colon cancer cells; SW480, 72 h) [µM]	IC50 ([3]; PanC-1, 24 h) [µM]	IC50 ([3]; PanC-1, 48 h) [µM]	IC50 ([3]; PanC-1, 72 h) [µM]	other results
C/C(=N\NC(N)=S)c1ccc2ccccc2c1O [MRL23]	> 10	> 10	> 10	> 10	5	4	> 10	> 10													IC50 (SW480 colon cancer cells; Homo sapiens, SW480, 72 h): > 10 µM; IC50 ([3]; Homo sapiens, PANC-1, 24 h): > 10 µM; IC50 ([3]; Homo sapiens, PANC-1, 48 h): > 10 µM; IC50 ([3]; Homo sapiens, PANC-1, 72 h): > 10 µM; inhibition of cell proliferation (in words) [4]: potent inhibitor
C/C(=N\NC(=O)c1ccc(O)cc1)c1ccc2ccccc2c1O [MRL24]	> 10	3.5	2	> 10	> 10	5	> 10	10													IC50 (SW480 colon cancer cells; Homo sapiens, SW480, 72 h): 4 µM; IC50 ([3]; Homo sapiens, PANC-1, 24 h): > 10 µM; IC50 ([3]; Homo sapiens, PANC-1, 48 h): 5 µM; IC50 ([3]; Homo sapiens, PANC-1, 72 h): 4 µM; inhibition of cell proliferation (in words) [4]: potent inhibitor
NNC(=O)c1cc2ccccc2cc1O [MRL BDM]									> 50	> 50	> 50	> 50	> 50	> 50	> 50	> 50	> 50	> 50	> 50	> 50	
O=C(N/N=C/c1ccc(F)c(F)c1)c1cc2ccccc2cc1O [MRL DFB]									> 50	25	22	> 50	25	17	> 50	20	18	> 50		20	
O=C(N/N=C/c1ccc(F)cc1)c1cc2ccccc2cc1O [MRL MFB]									> 50	> 50	> 50	> 50	> 50	> 50	> 50	> 50	> 50	> 50	> 50	> 50	
O=C(N/N=C/c1ccc(O)cc1)c1cc2ccccc2cc1O [MRL MHB]									> 50	> 50	> 50	> 50	> 50	> 50	> 50	> 50	> 50	> 50	> 50	> 50	
O=C(N/N=C/c1cc(F)cc(F)c1)c1cc2ccccc2cc1O [MRL RFB]										35	35	> 50	40	35		40	35	> 50	40	40	
O=C(N/N=C/c1ccc(F)c(F)c1F)c1cc2ccccc2cc1O [MRL TFB]									> 50	> 50	> 50	> 50	> 50	> 50	> 50	> 50	> 50	> 50	> 50	> 50	
O=C(N/N=C/c1ccc2ccccc2n1)c1cc2ccccc2cc1O [QNL]	> 50	> 50	20	> 50	> 50	25	> 50	> 50													IC50 (SW480 colon cancer cells; Homo sapiens, SW480, 72 h): > 50 µM; IC50 ([3]; Homo sapiens, PANC-1, 24 h): > 50 µM; IC50 ([3]; Homo sapiens, PANC-1, 48 h): > 50 µM; IC50 ([3]; Homo sapiens, PANC-1, 72 h): > 50 µM
